Ten molecules from patent US20230295200A1 (REGENTS OF THE UNIVERSITY OF MICHIGAN, priority 2022, published 2023) can be followed below.

For one assay, the target named is T1, STAT6 protein (Homo sapiens, UniProt P42226).
T1 sequence (P42226 1-847): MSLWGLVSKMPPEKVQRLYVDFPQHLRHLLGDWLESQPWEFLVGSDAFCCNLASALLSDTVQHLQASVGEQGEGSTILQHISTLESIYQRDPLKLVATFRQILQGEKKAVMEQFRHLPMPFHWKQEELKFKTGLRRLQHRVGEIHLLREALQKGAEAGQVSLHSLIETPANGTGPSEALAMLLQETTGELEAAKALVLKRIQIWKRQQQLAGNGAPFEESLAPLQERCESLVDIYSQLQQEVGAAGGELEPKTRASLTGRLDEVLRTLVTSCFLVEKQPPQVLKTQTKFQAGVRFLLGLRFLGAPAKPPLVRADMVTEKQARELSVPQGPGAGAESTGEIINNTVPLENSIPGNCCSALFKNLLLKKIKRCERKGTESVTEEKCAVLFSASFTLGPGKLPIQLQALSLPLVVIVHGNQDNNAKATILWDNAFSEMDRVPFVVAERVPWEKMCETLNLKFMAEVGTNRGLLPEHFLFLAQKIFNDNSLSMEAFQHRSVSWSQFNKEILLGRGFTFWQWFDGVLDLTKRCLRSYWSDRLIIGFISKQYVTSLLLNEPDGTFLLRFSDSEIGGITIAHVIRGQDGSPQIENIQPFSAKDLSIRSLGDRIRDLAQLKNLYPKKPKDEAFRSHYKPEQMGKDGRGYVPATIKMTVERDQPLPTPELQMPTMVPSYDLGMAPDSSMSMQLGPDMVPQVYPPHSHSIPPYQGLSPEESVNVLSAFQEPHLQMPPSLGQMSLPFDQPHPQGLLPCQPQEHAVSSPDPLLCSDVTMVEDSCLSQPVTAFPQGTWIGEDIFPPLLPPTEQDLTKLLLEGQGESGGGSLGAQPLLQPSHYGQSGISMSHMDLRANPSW
Briefly: Fluorescence polarization (FP) binding assay, STAT6. As to conditions: FP competition, 5 nM fluorescein-labeled tracer, 200 nM protein, PBS pH7.4; read-out: Binding STAT6. The gist of the method:
(§1)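 Fluorescence polarization is read after STAT5 or STAT6 protein (200 nM) and a fluorescein-labeled tracer (5 nM) equilibrate for 1 h at room temperature in DTT-containing PBS pH 7.4 with BGG and Tween-20. Inhibition constants are obtained by nonlinear curve fitting.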
Background: Fluorescence polarisation rises when a labelled molecule tumbles more slowly, as on binding a larger partner.

The target of the next assay is T2, STAT5A (Homo sapiens, UniProt P42229).
T2 sequence (P42229 1-794): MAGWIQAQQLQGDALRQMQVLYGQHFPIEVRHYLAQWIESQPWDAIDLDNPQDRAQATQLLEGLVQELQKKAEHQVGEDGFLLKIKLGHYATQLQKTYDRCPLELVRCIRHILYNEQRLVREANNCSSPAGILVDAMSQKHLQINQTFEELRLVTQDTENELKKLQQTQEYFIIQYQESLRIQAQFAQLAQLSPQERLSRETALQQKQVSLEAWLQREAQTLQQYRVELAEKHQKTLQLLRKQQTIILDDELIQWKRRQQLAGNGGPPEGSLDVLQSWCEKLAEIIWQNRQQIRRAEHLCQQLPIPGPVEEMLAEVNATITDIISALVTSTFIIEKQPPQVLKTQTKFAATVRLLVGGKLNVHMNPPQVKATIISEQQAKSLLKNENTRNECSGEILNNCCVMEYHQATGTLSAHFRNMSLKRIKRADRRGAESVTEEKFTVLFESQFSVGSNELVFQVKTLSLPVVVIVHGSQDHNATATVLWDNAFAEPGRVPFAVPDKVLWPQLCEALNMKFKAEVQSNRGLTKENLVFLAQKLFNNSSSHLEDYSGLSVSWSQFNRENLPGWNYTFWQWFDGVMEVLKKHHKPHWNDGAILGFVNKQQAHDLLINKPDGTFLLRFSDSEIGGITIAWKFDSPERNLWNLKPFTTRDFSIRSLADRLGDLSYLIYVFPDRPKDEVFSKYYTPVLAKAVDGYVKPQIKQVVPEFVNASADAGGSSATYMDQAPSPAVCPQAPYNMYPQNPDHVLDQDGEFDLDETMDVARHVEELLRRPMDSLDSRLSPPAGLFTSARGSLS
Nature of the assay: Fluorescence polarization (FP) binding assay, STAT5A. Particulars: FP competition, 5 nM fluorescein-labeled tracer, 200 nM protein, PBS pH7.4. Put shortly:
as §1

`CC(C)(C)[C@H](NC(=O)c1cc2cc(C(F)(F)P(=O)(O)O)ccc2s1)C(=O)N1CCC[C@H]1C(=O)N[C@@H]1CCc2ccccc2C1` [Compound 215, ((2-(((S)-3,3-dimethyl-1-oxo-1-((S)-2-(((R)-1,2,3,4-tetrahydronaphthalen-2-yl)carbamoyl)pyrrolidin-1-yl)butan-2-yl)carbamoyl)benzo[b]thiophen-5-yl)difluoromethyl)phosphonic acid]: the Ki at STAT6 protein is 1000 to 10000 nM; on STAT5A it was over 10000 nM.
Take `CC(C)(C)[C@H](NC(=O)c1cc2cc(C(F)(F)P(=O)(O)O)ccc2s1)C(=O)N1Cc2ccccc2C[C@H]1C(=O)N1CCOC(c2ccccn2)C1` (stereo partly drawn) [Compound 216, ((2-(((2S)-3,3-dimethyl-1-oxo-1-((3S)-3-(2-(pyridin-2-yl)morpholine-4-carbonyl)-3,4-dihydroisoquinolin-2(1H)-yl)butan-2-yl)carbamoyl)benzo[b]thiophen-5-yl)difluoromethyl)phosphonic acid]: the Ki at STAT6 protein and at STAT5A was over 10000 nM in each case.
In the case of `CC(C)(C)[C@H](NC(=O)c1cc2cc(C(F)(F)P(=O)(O)O)ccc2s1)C(=O)N1CCC[C@H]1C(=O)Nc1ccc(-c2ccccc2)s1` [Compound 305, ((2-(((S)-3,3-dimethyl-1-oxo-1-((S)-2-((5-phenylthiophen-2-yl)carbamoyl)pyrrolidin-1-yl)butan-2-yl)carbamoyl)benzo[b]thiophen-5-yl)difluoromethyl)phosphonic acid], the figures for the Ki at STAT6 protein and on STAT5A were 1000 to 10000 nM and 100 to 1000 nM, respectively.
Consider `CC(C)(C)[C@H](NC(=O)c1cc2cc(C(F)(F)P(=O)(O)O)ccc2s1)C(=O)N1CCCCC[C@H]1C(=O)Nc1ccc(-c2ccccc2)s1` [Compound 306, ((2-(((S)-3,3-dimethyl-1-oxo-1-((S)-2-((5-phenylthiophen-2-yl)carbamoyl)azepan-1-yl)butan-2-yl)carbamoyl)benzo[b]thiophen-5-yl)difluoromethyl)phosphonic acid], for which the Ki at STAT6 protein was over 10000 nM; on STAT5A, 1000 to 10000 nM.
As for `CCO[C@@H]1CCN(C(=O)[C@@H](NC(=O)c2cc3cc(C(F)(F)P(=O)(O)O)ccc3s2)C(C)(C)C)[C@@H]1C(=O)N1CCO[C@H](c2ccccc2)C1` [Compound 307, ((2-(((S)-1-((2S,3R)-3-ethoxy-2-((R)-2-phenylmorpholine-4-carbonyl)pyrrolidin-1-yl)-3,3-dimethyl-1-oxobutan-2-yl)carbamoyl)benzo[b]thiophen-5-yl)difluoromethyl)phosphonic acid], the results for the Ki on STAT6 protein and on STAT5A were 100 to 1000 nM and 1000 to 10000 nM, respectively.
For `CCO[C@H]1CCN(C(=O)[C@@H](NC(=O)c2cc3cc(C(F)(F)P(=O)(O)O)ccc3s2)C(C)(C)C)[C@@H]1C(=O)N1CCO[C@H](c2ccccc2)C1` [Compound 308, ((2-(((S)-1-((2S,3S)-3-ethoxy-2-((R)-2-phenylmorpholine-4-carbonyl)pyrrolidin-1-yl)-3,3-dimethyl-1-oxobutan-2-yl)carbamoyl)benzo[b]thiophen-5-yl)difluoromethyl)phosphonic acid], in that order: 1000 to 10000 nM and 1000 to 10000 nM.
In the case of `CN(C)C(=O)CCN(C(=O)[C@@H]1CCCN1C(=O)[C@@H](NC(=O)c1cc2cc(C(F)(F)P(=O)(O)O)ccc2s1)C(C)(C)C)c1ccc(-c2nccs2)cc1` [Compound 309, ((2-(((S)-1-((S)-2-((3-(dimethylamino)-3-oxopropyl)(4-(thiazol-2-yl)phenyl)carbamoyl)pyrrolidin-1-yl)-3,3-dimethyl-1-oxobutan-2-yl)carbamoyl)benzo[b]thiophen-5-yl)difluoromethyl)phosphonic acid], the Ki on STAT6 protein is 100 to 1000 nM; on STAT5A it was 1000 to 10000 nM.
As for `CN(C)C(=O)CCN(C(=O)[C@@H]1CCCN1C(=O)[C@@H](NC(=O)c1cc2cc(C(F)(F)P(=O)(O)O)ccc2s1)C(C)(C)C)c1ccc2ccccc2c1` [Compound 317, ((2-(((S)-1-((S)-2-((3-(dimethylamino)-3-oxopropyl)(naphthalen-2-yl)carbamoyl)pyrrolidin-1-yl)-3,3-dimethyl-1-oxobutan-2-yl)carbamoyl)benzo[b]thiophen-5-yl)difluoromethyl)phosphonic acid], the Ki on STAT6 protein fell in the range of 100 to 1000 nM; on STAT5A, 1000 to 10000 nM.
For `CN(C)C(=O)CCN(C(=O)[C@@H]1CCCN1C(=O)[C@@H](NC(=O)c1cc2cc(C(F)(F)P(=O)(O)O)ccc2s1)C(C)(C)C)c1ccc(-c2ccccc2)cc1` [Compound 318], in that order: 1000 to 10000 nM and 1000 to 10000 nM.
On to `CN(C)C(=O)CCN(C(=O)[C@@H]1CCCN1C(=O)[C@@H](NC(=O)c1cc2cc(C(F)(F)P(=O)(O)O)ccc2s1)C(C)(C)C)c1cccc(-c2nccs2)c1` [Compound 320, ((2-(((S)-1-((S)-2-((3-(dimethylamino)-3-oxopropyl)(3-(thiazol-2-yl)phenyl)carbamoyl)pyrrolidin-1-yl)-3,3-dimethyl-1-oxobutan-2-yl)carbamoyl)benzo[b]thiophen-5-yl)difluoromethyl)phosphonic acid], for which the Ki on STAT6 protein is 1000 to 10000 nM; on STAT5A, over 10000 nM.
